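Following 48 hours of exposure in 96-well plates, responses at five concentrations were used to interpolate endpoints linearly. GI50 marks 50% less growth.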 Active and inactive are the calls of the source. Rule as the data show it: active = GI50 up to about 1.1 µM and inactive = higher.
Experiments:
Test in all cases: DTP human tumour cell line panel, 48 h
[1] = test system: A549
[2] = test system: MDA-N
[3] = test system: CAKI-1
[4] = test system: SK-OV-3
[5] = test system: SN12C
[6] = test system: MDA-MB-435
[7] = test system: K562
[8] = test system: Malme-3M
[9] = test system: HOP-62
[10] = test system: NCI-H522
[11] = test system: CCRF-CEM
[12] = test system: OVCAR-8
[13] = test system: Hs-578T
[14] = test system: SK-MEL-2
[15] = test system: IGROV-1
[16] = test system: A498
[17] = test system: HCT-15
[18] = test system: NCI-H460
[19] = test system: SF-539
[20] = test system: SNB-75
[21] = test system: NCI/ADR-RES
[22] = test system: COLO 205
[23] = test system: HCC 2998
[24] = test system: BT-549
[25] = test system: HT-29
[26] = test system: UO-31
[27] = test system: UACC-62
[28] = test system: HL-60
[29] = test system: EKVX
[30] = test system: RPMI-8226
[31] = test system: KM12
[32] = test system: OVCAR-4
[33] = test system: MCF7
[34] = test system: MOLT-4
[35] = test system: TK-10
[36] = test system: 786-0
[37] = test system: SF-295
[38] = test system: OVCAR-5
[39] = test system: SR
[40] = test system: SK-MEL-28
[41] = test system: T47D
[42] = test system: SK-MEL-5
[43] = test system: LOX IMVI
[44] = test system: HCT-116
[45] = test system: ACHN
[46] = test system: U-251
[47] = test system: NCI-H23
[48] = test system: OVCAR-3
[49] = test system: SNB-19
[50] = test system: PC-3
[51] = test system: NCI-H226
[52] = test system: MDA-MB-231
[53] = test system: SF-268
[54] = test system: DU-145
[55] = test system: SW-620
[56] = test system: RXF 393
[57] = test system: M14
[58] = test system: UACC-257

Compound: COC1C(O)CC(OC2C(C)OC(Oc3cc(O)c4c(O)c5c(cc4c3)C[C@@H]([C@H](OC)C(=O)[C@@H](O)[C@@H](C)O)[C@H](OC3CC(OC4CC(OC6CC(C)(O)C(O)C(C)O6)C(O)C(C)O4)C(O)C(C)O3)C5=O)CC2OC(C)=O)OC1C (some centres not stated)
- GI50 [1]: 63.1 µM (inactive)
- GI50 [2]: 97.7 µM (inactive)
- GI50 [3]: > 100 µM (inactive)
- GI50 [4]: > 100 µM (inactive)
- GI50 [5]: 32.5 µM (inactive)
- GI50 [6]: 34 µM (inactive)
- GI50 [7]: 40.1 µM (inactive)
- GI50 [8]: 3.47 µM (inactive)
- GI50 [9]: > 100 µM (inactive)
- GI50 [10]: 39.1 µM (inactive)
- GI50 [11]: > 100 µM (inactive)
- GI50 [12]: 67.1 µM (inactive)
- GI50 [13]: 20.3 µM (inactive)
- GI50 [14]: 79.3 µM (inactive)
- GI50 [15]: 41.1 µM (inactive)
- GI50 [16]: > 100 µM (inactive)
- GI50 [17]: > 100 µM
- GI50 [18]: 31.6 µM (inactive)
- GI50 [19]: 38.6 µM (inactive)
- GI50 [20]: > 100 µM (inactive)
- GI50 [21]: > 100 µM (inactive)
- GI50 [22]: 70.8 µM (inactive)
- GI50 [23]: 97.9 µM (inactive)
- GI50 [24]: > 100 µM (inactive)
- GI50 [25]: 65.2 µM (inactive)
- GI50 [26]: > 100 µM (inactive)
- GI50 [27]: 29.4 µM (inactive)
- GI50 [28]: > 100 µM (inactive)
- GI50 [29]: > 100 µM (inactive)
- GI50 [30]: 60.8 µM (inactive)
- GI50 [31]: 88.1 µM (inactive)
- GI50 [32]: > 100 µM (inactive)
- GI50 [33]: 24.4 µM (inactive)
- GI50 [34]: 17.5 µM (inactive)
- GI50 [35]: > 100 µM (inactive)
- GI50 [36]: > 100 µM (inactive)
- GI50 [37]: > 10 µM (inactive)
- GI50 [38]: > 100 µM (inactive)
- GI50 [39]: 63.5 µM (inactive)
- GI50 [40]: 32.2 µM (inactive)
- GI50 [41]: 66.5 µM (inactive)
- GI50 [42]: 17.1 µM (inactive)
- GI50 [43]: 19.5 µM (inactive)
- GI50 [44]: 59.2 µM (inactive)
- GI50 [45]: 56.1 µM (inactive)
- GI50 [46]: 48.1 µM (inactive)
- GI50 [47]: 88.1 µM (inactive)
- GI50 [48]: > 100 µM (inactive)
- GI50 [49]: 33.2 µM (inactive)
- GI50 [50]: > 100 µM (inactive)
- GI50 [51]: 29 µM (inactive)
- GI50 [52]: 91.6 µM (inactive)
- GI50 [53]: 97.1 µM (inactive)
- GI50 [54]: > 100 µM (inactive)
- GI50 [55]: > 100 µM (inactive)

Compound: CC(=O)n1nc(-c2ccc3ccccc3c2)nc1C
- GI50 [1]: 81.1 µM (inactive)
- GI50 [2]: 70.8 µM (inactive)
- GI50 [3]: 53.7 µM (inactive)
- GI50 [4]: > 100 µM (inactive)
- GI50 [5]: > 100 µM (inactive)
- GI50 [6]: 33.7 µM (inactive)
- GI50 [7]: 90.8 µM (inactive)
- GI50 [8]: > 100 µM (inactive)
- GI50 [9]: 39.5 µM (inactive)
- GI50 [10]: > 100 µM (inactive)
- GI50 [11]: 83.8 µM (inactive)
- GI50 [12]: > 100 µM (inactive)
- GI50 [56]: > 100 µM (inactive)
- GI50 [13]: 39.4 µM (inactive)
- GI50 [14]: > 100 µM (inactive)
- GI50 [15]: > 100 µM (inactive)
- GI50 [17]: 35.6 µM
- GI50 [18]: 95.9 µM (inactive)
- GI50 [19]: > 100 µM (inactive)
- GI50 [20]: 70.3 µM (inactive)
- GI50 [21]: > 100 µM (inactive)
- GI50 [22]: > 100 µM (inactive)
- GI50 [23]: > 100 µM (inactive)
- GI50 [24]: 48.6 µM (inactive)
- GI50 [25]: > 100 µM (inactive)
- GI50 [26]: 39.4 µM (inactive)
- GI50 [27]: 89.9 µM (inactive)
- GI50 [28]: 46 µM (inactive)
- GI50 [29]: 63 µM (inactive)
- GI50 [31]: 23.9 µM (inactive)
- GI50 [32]: 91 µM (inactive)
- GI50 [33]: > 100 µM (inactive)
- GI50 [34]: 56.8 µM (inactive)
- GI50 [35]: > 100 µM (inactive)
- GI50 [36]: > 100 µM (inactive)
- GI50 [37]: 52.8 µM (inactive)
- GI50 [57]: > 100 µM (inactive)
- GI50 [38]: > 100 µM (inactive)
- GI50 [39]: > 100 µM (inactive)
- GI50 [41]: 52.4 µM (inactive)
- GI50 [42]: 36.1 µM (inactive)
- GI50 [43]: 57.3 µM (inactive)
- GI50 [44]: 67.3 µM (inactive)
- GI50 [45]: 73.1 µM (inactive)
- GI50 [47]: > 10 µM (inactive)
- GI50 [48]: > 100 µM (inactive)
- GI50 [50]: 62.2 µM (inactive)
- GI50 [52]: > 100 µM (inactive)
- GI50 [53]: > 100 µM (inactive)
- GI50 [54]: 94.6 µM (inactive)
- GI50 [58]: 83.9 µM (inactive)
- GI50 [55]: 32.8 µM (inactive)

— ChEMBL document CHEMBL1201862, “PubChem BioAssay data set” (2004)
